Source: the supplement of paper PMC10307832

Assays:
Test in all cases: relative viability (nuclei count vs DMSO), 5 days (fraction); higher = more cells survive
QS11 + Palbociclib = compound: C1CC2=C(C1)C=C(C=C2)OC3=NC(=C4C(=N3)N(C=N4)CC5=CC=C(C=C5)C6=CC=CC=C6)N[C@@H](CC7=CC=CC=C7)CO [QS11] + CC(=O)c1c(C)c2cnc(Nc3ccc(N4CCNCC4)cn3)nc2n(C2CCCC2)c1=O [Palbociclib] (partner 0.5 µM)
Method in brief: (§1)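 Relative viability divides the nuclei count in treated wells by that in vehicle wells. Lung cancer cell lines were seeded in 1536-well plates, dosed by pin tool the next day, and fixed and stained after 5 days in one step with final 0.05% Triton X-100, 1% formaldehyde and 1 ug/ml Hoechst. Dosing was a single drug or a fixed anchor-drug dose plus five library-drug doses (not always all listed) in √10 steps, and values are medians of duplicate plates imaged at 4×.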

QS11 + Phenformin = compound: C1CC2=C(C1)C=C(C=C2)OC3=NC(=C4C(=N3)N(C=N4)CC5=CC=C(C=C5)C6=CC=CC=C6)N[C@@H](CC7=CC=CC=C7)CO [QS11] + N=C(N)NC(=N)NCCc1ccccc1 [Phenformin] (partner 250 µM)
Method in brief: as §1

AZ628 + Crizotinib = compound: CC1=C(C=C(C=C1)NC(=O)C2=CC(=CC=C2)C(C)(C)C#N)NC3=CC4=C(C=C3)N=CN(C4=O)C [AZ628] + C[C@@H](Oc1cc(-c2cnn(C3CCNCC3)c2)cnc1N)c1c(Cl)ccc(F)c1Cl [Crizotinib] (partner 1 µM)
Method in brief: as §1

[1] = compound: C[As](C)SC[C@H](NC(=O)CC[C@H](N)C(=O)O)C(=O)NCC(=O)O [Darinaparsin] + CC(C)C[C@H](NC(=O)[C@H](Cc1ccccc1)NC(=O)c1cnccn1)B(O)O [Bortezomib] (partner 0.002 µM)
Method in brief: as §1

Row | Cell Line | relative viability (QS11 + Palbociclib; first compound 0.08 µM) | relative viability (QS11 + Palbociclib; first compound 0.253 µM) | relative viability (QS11 + Palbociclib; first compound 0.8 µM) | relative viability (QS11 + Palbociclib; first compound 2.53 µM) | relative viability (QS11 + Palbociclib; first compound 8 µM) | relative viability (QS11 + Phenformin; first compound 0.08 µM) | relative viability (QS11 + Phenformin; first compound 0.253 µM) | relative viability (QS11 + Phenformin; first compound 0.8 µM) | relative viability (QS11 + Phenformin; first compound 2.53 µM) | relative viability (QS11 + Phenformin; first compound 8 µM) | relative viability (AZ628 + Crizotinib; first compound 0.08 µM) | relative viability (AZ628 + Crizotinib; first compound 0.253 µM) | relative viability (AZ628 + Crizotinib; first compound 0.8 µM) | relative viability (AZ628 + Crizotinib; first compound 2.53 µM) | relative viability (AZ628 + Crizotinib; first compound 8 µM) | relative viability ([1]; first compound 0.08 µM) | relative viability ([1]; first compound 0.8 µM) | relative viability ([1]; first compound 2.53 µM) | relative viability ([1]; first compound 8 µM)
1 | 201T | 0.369 | 0.406 | 0.345 | 0.395 | 0.277 | 0.468 | 0.399 | 0.4 | 0.414 | 0.376 | 1.05 | 0.999 | 1.06 | 1.06 | 1.08 | 1.1 | 1.09 | 1.06 | 1.15
2 | A549 |  |  |  |  |  | 0.115 | 0.256 | 0.154 | 0.125 | 0.197 | 0.702 | 0.728 | 0.697 | 0.712 | 0.382 |  |  |  | 
3 | A-427 | 0.553 | 0.582 |  | 0.551 | 0.574 | 0.286 | 0.358 |  | 0.34 | 0.363 | 0.641 | 0.74 | 0.69 | 0.665 | 0.251 | 1.05 | 0.977 | 0.954 | 1.08
4 | ABC-1 | 0.805 | 0.782 | 0.652 | 0.64 | 0.5 | 0.238 | 0.259 | 0.281 | 0.292 | 0.268 | 1.37 | 1.25 | 0.844 | 1.02 | 0.808 | 0.256 | 0.443 | 0.331 | 0.234
5 | BEN | 0.479 | 0.481 | 0.501 | 0.52 | 0.502 | 0.262 | 0.3 | 0.29 | 0.258 | 0.251 | 0.98 | 0.881 | 0.698 | 0.966 | 0.825 | 0.889 | 0.846 | 0.654 | 1
6 | CAL-12T | 0.431 | 0.568 | 0.409 | 0.499 | 0.264 | 0.571 | 0.572 | 0.552 | 0.594 | 0.561 | 0.871 |  | 0.565 | 0.622 | 0.361 | 1.01 | 0.924 | 0.94 | 0.997
7 | COR-L23 | 0.319 | 0.298 | 0.274 | 0.196 | 0.181 | 0.461 | 0.452 | 0.44 | 0.39 | 0.366 | 0.619 | 0.736 | 0.666 | 0.59 | 0.365 | 1.64 | 0.995 | 0.77 | 1.17
8 | COR-L 105 | 0.423 | 0.437 | 0.417 | 0.352 | 0.442 | 0.511 | 0.407 | 0.475 | 0.501 | 0.475 | 1.07 | 0.728 | 0.744 | 0.757 | 0.438 | 0.944 | 0.78 |  | 0.636
9 | Calu-6 |  |  |  |  |  |  |  |  |  |  | 0.753 | 0.678 | 0.605 | 0.577 | 0.153 | 1.04 | 0.968 | 0.949 | 0.945
10 | ChaGo-K-1 |  | 0.955 | 1.02 | 1.02 | 1.07 | 0.366 | 0.561 | 0.542 | 0.588 | 0.421 | 1.18 |  | 1.15 | 1.11 | 1.16 | 1.18 | 1.07 | 1.01 | 0.767
11 | EBC-1 |  |  |  |  |  |  |  |  |  |  | 0.201 | 0.212 | 0.169 | 0.197 | 0.168 | 0.473 | 0.559 | 0.471 | 0.507
12 | EKVX | 0.401 | 0.375 | 0.33 | 0.284 | 0.391 | 0.228 | 0.224 |  | 0.228 | 0.255 | 1.16 | 0.913 | 1 | 0.975 | 0.751 | 1.14 | 0.96 | 0.946 | 1.41
13 | EMC-BAC-2 | 0.515 | 0.545 | 0.43 | 0.443 | 0.406 | 0.519 | 0.579 | 0.53 | 0.463 | 0.44 | 0.809 | 0.759 | 0.76 | 0.795 | 0.874 | 1.2 | 0.973 | 0.997 | 1.2
14 | EPLC-272H |  | 0.315 | 0.31 | 0.305 | 0.31 |  | 0.327 | 0.312 | 0.287 | 0.304 | 0.904 | 0.957 | 0.848 | 0.851 | 0.813 | 1.07 | 0.969 | 0.74 | 0.9
15 | H3255 | 0.327 | 0.363 | 0.301 | 0.31 | 0.298 | 0.341 | 0.351 |  | 0.418 | 0.363 | 0.926 | 0.921 | 0.949 | 0.866 | 0.704 | 0.794 | 0.835 | 0.79 | 0.945
16 | HARA | 0.256 | 0.212 | 0.186 | 0.252 | 0.259 | 0.368 | 0.448 |  | 0.479 | 0.63 | 0.904 | 1.05 | 0.951 | 0.82 | 0.476 | 1.49 | 1.12 | 1.06 | 1.25
